Test results as given in article PMC10001950 (International Journal of Molecular Sciences, 2023).
Read-outs that look alike come from different tables or passages of the source.

Key:
BoNT/A LC [1] = target: T1, BoNT/A LC (Clostridium botulinum, UniProt P0DPI0); assay: biochemical; format: biochemical
[2] = test system: BoNT/A1 cleavage of SNAP-25 in hiPSC-derived motor neurons; assay: cells; format: cell-based, human
BoNT/A LC WT = BoNT/A LC WT (Clostridium botulinum, UniProt P0DPI0); format: binding
BoNT/A LC [3] = target: T1, BoNT/A LC; assay: biochemical; conditions: read-out: inhibited BoNT/A LC activity
BoNT/A LC [4] = target: T1, BoNT/A LC; assay: biochemical

T1 sequence (P0DPI0 2-448 limits assumed): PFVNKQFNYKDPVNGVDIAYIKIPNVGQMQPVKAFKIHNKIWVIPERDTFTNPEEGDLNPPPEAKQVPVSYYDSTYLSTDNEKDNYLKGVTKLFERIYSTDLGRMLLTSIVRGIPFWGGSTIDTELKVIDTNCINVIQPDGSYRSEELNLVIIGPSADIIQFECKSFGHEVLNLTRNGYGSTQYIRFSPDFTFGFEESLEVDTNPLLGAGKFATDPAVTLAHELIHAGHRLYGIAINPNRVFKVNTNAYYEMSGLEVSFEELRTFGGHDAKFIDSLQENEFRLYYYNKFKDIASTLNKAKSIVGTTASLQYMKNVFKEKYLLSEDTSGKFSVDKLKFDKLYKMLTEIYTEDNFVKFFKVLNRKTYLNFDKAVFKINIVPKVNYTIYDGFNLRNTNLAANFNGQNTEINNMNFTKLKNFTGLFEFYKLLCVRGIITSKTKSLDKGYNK
Sequence of BoNT/A LC WT (P0DPI0 2-448 limits assumed): as above

## O=c1cc(CNCc2ccc(-c3ccccc3)cc2)nc2c(O)cccn12 [Compound 27, 2-((([1,1′-biphenyl]-4-ylmethyl)amino)methyl)-9-hydroxy-4H-pyrido [1,2-a]pyrimidin-4-one]
BoNT/A LC [1]
  IC50: 300 ± 100 nM
  Ki: 150 nM
  potency compared to 2 (in words): significantly increased inhibitory potency
[2]; Homo sapiens, Neuron, 0.5 h
  IC50: 13000 nM
BoNT/A LC WT
  covalent adduct formation by HRMS (in words): Neither of the reversible compounds 2 and 27 showed any change in mass

## O=C(O)C1CNCCN(Cc2cc(=O)n3cccc(O)c3n2)C1 (centres unmarked) [Compound 1]
BoNT/A LC [1]
  IC50: 7400 ± 500 nM
BoNT/A LC [3]
  inhibition at 40 µM: > 90%

## O=c1cc(CNCc2ccccc2)nc2c(O)cccn12 [Compound 2, 2-((Benzylamino)methyl)-9-hydroxy-4H-pyrido [1,2-a]pyrimidin-4-one]
BoNT/A LC [1]
  IC50: 900 ± 200 nM
  fold more potent than initial lead 1: approximately seven-fold
[2]
  inhibition of SNAP-25 cleavage (in words): neither 2 nor 18 inhibited the cleavage of SNAP-25
BoNT/A LC WT
  covalent adduct formation by HRMS (in words): Neither of the reversible compounds 2 and 27 showed any change in mass

## O=c1cc(CNCc2cccc(Cl)c2)nc2c(O)cccn12 [Compound 18, 2-(((3-Chlorobenzyl)amino)methyl)-9-hydroxy-4H-pyrido [1,2-a]pyrimidin-4-one]
BoNT/A LC [1]
  IC50: 1700 ± 300 nM
[2]
  inhibition of SNAP-25 cleavage (in words): neither 2 nor 18 inhibited the cleavage of SNAP-25

## O=C(O)c1ccc2c(c1)N(Cc1cc(=O)n3cccc(O)c3n1)CC2 [Compound 54, 1-((9-Hydroxy-4-oxo-4H-pyrido [1,2-a]pyrimidin-2-yl)methyl)indoline-6-carboxylic acid]
BoNT/A LC [1]
  IC50: 1200 ± 100 nM
[2]
  protection of SNAP-25 (in words): protect against SNAP-25 cleavage

## CS(=O)(=O)SCCCCCc1ccn2c(=O)cc(CNCc3ccc(-c4ccccc4)cc3)nc2c1O [Compound 82, S-(6-(2-((([1,1′-biphenyl]-4-ylmethyl)amino)methyl)-9-hydroxy-4-oxo-4H-pyrido [1,2-a]pyrimidin-8-yl)pentyl) methanesulfonothioate]
BoNT/A LC WT
  covalent adduct formation by HRMS (in words): an increase in mass matching two covalent adducts
BoNT/A LC [4]
  Ki: 1870 ± 110 nM
  kinact: 0.0024 ± 0.0002 s⁻¹
  kinact/KI: 1260 ± 130 M⁻¹ s⁻¹

## O=c1cc(COCc2cccc(F)c2)nc2c(O)cccn12 [Compound 32, 2-(((3-Fluorobenzyl)oxy)methyl)-9-hydroxy-4H-pyrido [1,2-a]pyrimidin-4-one]
BoNT/A LC [1]
  IC50: 11000 ± 1000 nM
  less potent than 2 in the enzyme assay: ~10 fold
[2]
  protection of SNAP-25 (in words): nearly complete protection of SNAP-25

## O=c1cc(COCc2cccc(Cl)c2)nc2c(O)cccn12 [Compound 35, 2-(((3-Chlorobenzyl)oxy)methyl)-9-hydroxy-4H-pyrido [1,2-a]pyrimidin-4-one]
BoNT/A LC [1]
  IC50: 7500 ± 500 nM
[2]
  inhibition of SNAP-25 cleavage (in words): did not have any apparent effect on SNAP-25 cleavage

## O=c1cc(CN2CCc3cc(Cl)ccc32)nc2c(O)cccn12 [Compound 47, 2-((5-Chloroindolin-1-yl)methyl)-9-hydroxy-4H-pyrido [1,2-a]pyrimidin-4-one]
BoNT/A LC [1]
  IC50: 900 ± 600 nM
[2]
  protection of SNAP-25 (in words): protect against SNAP-25 cleavage
